Measured values from article PMC11219860, “A chemogenetic approach for dopamine imaging with tunable sensitivity” (Nature Communications, 2024).
Like-named read-outs stand apart in the source and are kept apart here.

What was measured:
dLight1.3b = assay: Two-photon dLight1.3b imaging in acute brain slices; set-up: species or system mouse
Method: Coronal brain slices (240 µm) containing the striatum and PFC were prepared from AAV-injected mice after 3–4 weeks of viral expression. Briefly, mice were deeply anesthetized with isoflurane and trans-cardially perfused with ice-cold cutting solution containing (in mM): 75 NaCl, 50 sucrose, 6 MgCl2, 2.5 KCl, 1.2 NaH2PO4, 0.1 CaCl2, 25 NaHCO3, and 2.5 D-glucose (bubbled with 5% CO2 in O2). The brain was quickly removed and sectioned using a vibrating blade microtome (VT1200S; Leica) before slices were transferred to an incubation chamber filled with artificial cerebrospinal fluid (ACSF) containing (in mM): 126 NaCl, 2.5 KCl, 1.2 MgCl2, 1.2 NaH2PO4, 2.5 CaCl2, 21.4 NaHCO3, 11.1 D-glucose and 10 µM MK-801 (34 °C, bubbled with 5% CO2 in O2, pH 7.4). After 45 min equilibration, slices were individually transferred to a recording chamber for 2 P imaging. NMDA, AMPA, GABA-A, nicotinic, and muscarinic receptors were blocked using 10 µM MK801, 10 µM DNQX, 100 µM picrotoxin, 1 µM DHBE, and 0.3 µM scopolamine, respectively. Changes of dLight fluorescence were measured by 2 P laser scanning microscopy, using a custom-built BX51WI microscope (Olympus). Excitation (920 nm) was provided by a pulsed Ti:Sapphire laser (Chameleon Ultra I; Coherent) and scanned using a pair of X-Y galvanometer mirrors (6215; Cambridge Technology). Emission was collected by a water immersion objective (60x, N.A. 1.00; Olympus) and filtered (ET680sp and ET525/50m-2P; Chroma) before detection by GaAsP photomultiplier tube (PMT, H10770PA-40; Hamamatsu). The temporal kinetics of fluorescence changes were captured using fast acquisition speed (2 kHz), ‘spot photometry’ (Toronado; B.W. Strowbridge), by scanning the laser around a circular path ([…] diameter) centered at the tip of the stimulating electrode or iontophoresis pipette which was visualized in the red channel (ET620/60 m; Chroma). The spatial dynamics of dLight fluorescence were captured by rasterized movie acquisition (30 × 40 µm, 3 Hz) and analyzed using ImageJ. Exogenous DA was applied by iontophoresis, using a thin-walled glass pipette filled with DA (1 M) and sulforhodamine 101 (300 µM), and ejected by short pulses of positive current ( + 20 to +200 nA, 5 ms) with a negative retention current to prevent DA leakage (−10 to −15 nA). Endogenous DA release was evoked by electrical stimulation using a double-tipped electrode pulled from septum theta glass capillaries (WPI), visualized with sulforhodamine 101 (10 µM). A single pulse (10 µA, 0.5 ms) was used to evoke DA release in striatal slices, while a train of stimuli (5 × 20 µA at 25 Hz) was used in cortical slices. Changes of fluorescence are expressed as ∆F/F0, wherein baseline fluorescence (F0) was measured from the 300 ms before DA stimulation in spot photometry measurements, or defined as the average of 10 frames preceding stimulation in rasterized movies. Peak ∆F/F0 was calculated by maximum peak detection from the time period following stimulation ( ~ 500 ms) or from the rasterized frame immediately following stimulation. Data were analyzed in AxoGraph (J. Clements) and ImageJ.

[1] = 10 and 30 mg/kg per os, ref Svensson et al 2017, cited from earlier work
[2] = In vivo pharmacokinetics, free brain concentration (LC/MS); set-up: species or system mouse; conditions: 10 mg/kg i.p.
Method: To measure free brain and plasma concentrations of DETQ in the mouse, male C57Bl6/N mice from Taconic Biosciences (Germantown, NY, USA) weighing 23–25 g (9–10 weeks old) were used for this study. The animals were acclimated for at least 72 hours after arrival from the breeder and housed five per cage in “shoe box” size cages with free access to food and water (lights on from 5 am to 5 pm) before use. The experiment was approved by the Institutional IACUC committee, and Eli Lilly is an AAALAC-certified facility. DETQ (Eli Lilly, see above) was formulated as a fine suspension in 20% HPBCD in purified water using ultrasonication. The drug was administered intraperitoneally at 10 mg/kg body weight (10 mL/kg. dose volume) with four animals per time point (0.25, 0.5, 0.75, 1, 1.5, and 2 hr). The animals were decapitated at the time points indicated above, and their frontal brains (mainly frontal cortex) were rapidly dissected and frozen. Blood was collected at decapitation, and plasma was separated by centrifugation. Both samples were then stored at −80 °C until further analysis. DETQ concentrations were measured in plasma and brain tissues by liquid chromatography with tandem mass spectrometry (LC/MS). The samples were analyzed using an AB Sciex API 4000 quadrupole mass spectrometer (Applied Biosystems, Foster City, CA) with a TurboIonSpray interface. Brain samples were homogenized in a methanol-water solution (20:80) using a probe sonicator. Both brain and plasma samples underwent extraction procedures. Calibration curves were established by spiking blank plasma or brain samples with an internal standard. The system utilized Shimadzu LC-10AD pumps controlled by an SCL-10A controller (Kyoto, Japan). Sample injections were performed by a Z-215 liquid handler (Gilson, Middleton, WI). Chromatographic separation of all compounds was achieved using a Betasil javelin C18 HPLC column, 20 mm × 2.1 mm, 5 μm (Thermo Fisher Scientific, Waltham, MA). The unbound fraction in brain tissue samples was determined by equilibrium dialysis in mouse brain homogenate mixtures after incubation of the compound for 4.5 hours. The unbound brain concentrations were calculated from the following equation[24]: Totalbrainconcentration*Unboundfractioninbrain=Unboundbrainconcentration(Cu,brain)

Q: For C[C@H]1c2cccc(C(C)(C)O)c2C[C@H](CO)N1C(=O)Cc1c(Cl)cccc1Cl [DETQ, 2-(2,6-dichlorophenyl)-1-((1S,3R)-3-(hydroxymethyl)-5-(2-hydroxypropan-2-yl)-1-methyl-3,4-dihydroisoquinolin-2(1H)-yl)ethan-1-one], which “fluorescence changes evoked by train of stimuli in PFC slices” value (dLight1.3b; 5 × 20 µA, 0.5 ms, 25 Hz, DETQ) is on record?
A: unmask small increases

Q: What about the “area of dLight1.3b ∆F/F0 >2σ noise” value (dLight1.3b; DA iontophoresis 20 nA, DETQ 200 nM) of the same compound?
A: significantly increased

Q: What about the “peak ∆F/F0 and area (>2σ noise) evoked by single electrical stimulation” value (dLight1.3b; dorsal striatum slices, 10 µA, 0.5 ms, DETQ) of the same compound?
A: significantly enhanced

Q: And the “decay time of fluorescence changes (spot photometry)” value (dLight1.3b; ejection current 50 nA, DETQ 200 nM)?
A: slowed

Q: What about the “increase of dLight sensitivity (peak ∆F/F0 over ejection currents)” value (dLight1.3b; striatal slices, DA iontophoresis, DETQ 200 nM) of the same compound?
A: 2.6 fold

Q: And the behavioral activity ([1]; hD1 mice)?
A: pronounced behavioral activation

Q: What about the behavioral activity ([1]; wild type mice) of the same compound?
A: no behavioral activity

Q: And the “clearance from the brain” value ([2]; 2 hours post-injection)?
A: almost completely cleared

Q: And the concentration at 1 h ([2]; male, C57Bl6/N, mouse, brain (frontal brain, unbound concentration), intraperitoneal, 1-hour post-injection, read-out: free brain level)?
A: < 0.05 µM

Q: And the concentration at 15 min ([2]; male, C57Bl6/N, mouse, brain (frontal brain, unbound concentration), intraperitoneal, 15 minutes after dosing, read-out: free brain level)?
A: ~0.27 µM

Q: What about the concentration at 45 min ([2]; male, C57Bl6/N, mouse, brain (frontal brain, unbound concentration), intraperitoneal, 45 minutes post-injection, read-out: free brain level) of the same compound?
A: ~0.11 µM
